According to patent US20250154219A1, “PEPTIDE ANALOGS” (Adepthera LLC, priority 2017, published 2025):

Key:
CLR/RAMP1 receptor [1] = biological target: T1, CLR/RAMP1 receptor (Homo sapiens, UniProt O60894+Q16602); assay: CLR/RAMP1 cAMP assay, antagonist mode (CGRP-stimulated); assay type: cell-based; conditions: for CLR/RAMP1 Max Activity % of positive control (antagonist): antagonist mode; for receptor selectivity of antagonists, in words: CLR/RAMP1 versus CLR/RAMP2
Method: (§1) A cell line carrying the recombinant CLR/RAMP1, CLR/RAMP2, or a CLR/RAMP3 receptor was employed in the assay. […] The CLR/RAMP1 CAMP, CLR/RAMP2 arrestin, and CLR/RAMP3 CAMP assays (DiscoveRx, Fremont, Calif.) were used.
(§2) For the analysis of antagonistic activity, synthetic analogs were pre-incubated with the cells before adding the reference ligand at its EC80. […] For the determination of antagonistic activity, cells were pre-incubated with sample followed by agonist challenge at the EC80 concentration. […] After appropriate compound incubation, assay signal was generated through incubation with 20 μL cAMP XS+ED/CL lysis cocktail for one hour followed by incubation with 20 μL cAMP XS+EA reagent for three hours at room temperature. Microplates were read following signal generation with a PerkinElmer Envision™ instrument for chemiluminescent signal detection.
(§3) For the antagonistic activity assay, percentage inhibition is calculated using the following formula: % Inhibition=100%×(1−(mean RLU of test sample−mean RLU of vehicle control)/(mean RLU of EC80 control−mean RLU of vehicle control)).

CLR/RAMP2 receptor [2] = biological target: T2, CLR/RAMP2 receptor (Homo sapiens, UniProt O60895+Q16602); assay: CLR/RAMP2 arrestin assay, antagonist mode (ADM-stimulated); assay type: cell-based
T2 sequence (Q16602 23-461): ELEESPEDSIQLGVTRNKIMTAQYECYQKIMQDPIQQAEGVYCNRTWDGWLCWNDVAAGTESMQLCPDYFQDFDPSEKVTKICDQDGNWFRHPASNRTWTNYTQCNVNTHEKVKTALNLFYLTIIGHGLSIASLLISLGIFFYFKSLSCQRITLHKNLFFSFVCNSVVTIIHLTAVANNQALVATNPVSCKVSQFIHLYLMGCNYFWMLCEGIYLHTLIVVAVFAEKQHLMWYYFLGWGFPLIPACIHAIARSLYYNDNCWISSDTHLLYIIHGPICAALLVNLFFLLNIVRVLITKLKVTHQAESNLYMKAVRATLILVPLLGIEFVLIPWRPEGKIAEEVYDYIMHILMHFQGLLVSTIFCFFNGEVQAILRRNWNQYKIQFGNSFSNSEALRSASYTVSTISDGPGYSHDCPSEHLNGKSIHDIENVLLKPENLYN
T2 sequence (O60895 43-175): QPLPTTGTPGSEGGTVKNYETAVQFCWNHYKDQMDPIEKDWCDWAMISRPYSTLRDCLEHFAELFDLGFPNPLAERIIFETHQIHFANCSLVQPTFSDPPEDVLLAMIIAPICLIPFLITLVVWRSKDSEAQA
Method: A cell line carrying the recombinant CLR/RAMP1, CLR/RAMP2, or a CLR/RAMP3 receptor was employed in the assay. Peptide agonist activities were tested, in duplicate, at 10 different concentrations, starting with 1.0 μM and serially diluted 3-fold, in DMSO. […] The CLR/RAMP1 CAMP, CLR/RAMP2 arrestin, and CLR/RAMP3 CAMP assays (DiscoveRx, Fremont, Calif.) were used.
For the analysis of antagonistic activity, synthetic analogs were pre-incubated with the cells before adding the reference ligand at its EC80. […] For antagonistic activity determination, cells were pre-incubated with antagonist followed by agonist challenge at the EC80 concentration. […] Then, 5 μL of 6× EC80 agonist in assay buffer was added to the cells and incubated at 37 C or room temperature for 90 or 180 minutes.
The microplates were read following signal generation with a PerkinElmer Envision™ instrument for chemiluminescent signal detection.
% Activity=100%×(mean RLU of test sample−mean RLU of vehicle control)/(mean MAX control ligand−mean RLU of vehicle control). For antagonistic activity assays, percentage inhibition was calculated using the following formula: % Inhibition=100%×(1−(mean RLU of test sample−mean RLU of vehicle control)/(mean RLU of EC80 control−mean RLU of vehicle control)).

[3] = biological target: somatostatin receptor SSTR2 (Homo sapiens, UniProt P30874); conditions: arrestin assay
Sequence of somatostatin receptor SSTR2 (P30874 whole entry): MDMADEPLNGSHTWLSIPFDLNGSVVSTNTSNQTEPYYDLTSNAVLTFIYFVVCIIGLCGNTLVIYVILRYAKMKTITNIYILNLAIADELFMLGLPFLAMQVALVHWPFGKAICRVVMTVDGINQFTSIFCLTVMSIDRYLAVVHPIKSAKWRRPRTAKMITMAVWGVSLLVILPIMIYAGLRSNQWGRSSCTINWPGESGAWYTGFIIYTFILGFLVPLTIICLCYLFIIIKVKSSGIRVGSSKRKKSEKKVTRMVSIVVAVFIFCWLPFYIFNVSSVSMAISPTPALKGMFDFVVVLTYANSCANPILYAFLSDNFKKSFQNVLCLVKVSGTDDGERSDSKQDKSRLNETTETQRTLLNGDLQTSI
Method: (§4) The agonistic activities toward SSTR2, NTSR1, and AGTRL1 were assayed with an SSTR2 arrestin assay, an NTSR1 calcium flux assay, and an AGTRL1 CAMP assay (Discoverx Inc.), respectively.
(§5) For the Arrestin assays, PathHunter cell lines (Discoverx Inc.) were expanded from freezer stocks, and seeded in a total volume of 20 μL into white walled, 384-well microplates and incubated at 37 C for the appropriate time prior to testing. For agonist determination, cells were incubated with sample to induce response. […] The microplates were read following signal generation with a PerkinElmer Envision™ instrument for chemiluminescent signal detection.
(§6) The compound activity was analyzed using a CBIS data analysis suite (ChemInnovation, CA). For agonist mode assays, percentage activity was calculated using the following formula:
(§7) % Activity=100%×(mean RLU of test sample−mean RLU of vehicle control)/(mean MAX control ligand−mean RLU of vehicle control).

CLR/RAMP1 receptor [4] = biological target: T1, CLR/RAMP1 receptor; assay: CLR/RAMP1 cAMP receptor-activation assay (agonist mode); assay type: cell-based; conditions: for CLR/RAMP1 Max Activity % of positive control: agonist mode, positive control β-CGRP;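 on all read-outs here: Dose–response over 10 threefold dilutions from 1.0 µM, run in duplicate, luminescent cAMP detection (RLU), activity scaled between vehicle control (0%) and maximal control (100%)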
Method: (§8) Using a receptor activation assay, the dose-dependent stimulatory response of peptide agonists on a CLR/RAMP1 receptor, a CLR/RAMP2, or a CLR/RAMP3 receptor complex was determined. A cell line carrying the recombinant CLR/RAMP1, CLR/RAMP2, or a CLR/RAMP3 receptor was employed in the assay. Peptide agonist activities were tested, in duplicate, at 10 different concentrations, starting with 1.0 μM and serially diluted 3-fold, in DMSO. […] The CLR/RAMP1 CAMP, CLR/RAMP2 arrestin, and CLR/RAMP3 CAMP assays (DiscoveRx, Fremont, Calif.) were used.
(§9) The pharmacology of superagonistic activity of synthetic analogs was studied in cells that stably express CLR/RAMP1 (1321N1 cells), CLR/RAMP2 (CHO-K1 cells), or CLR/RAMP3 (CHO-K1 cells) receptors.
(§10) For the analysis of Gs-coupled CAMP production, cAMP Hunter cell lines were expanded from freezer stocks, and cells were seeded in a total volume of 20 μL into white walled, 384-well microplates and incubated at 37 C for the appropriate time prior to testing. The CAMP modulation was determined using the DiscoverX HitHunter CAMP XS+ assay. For agonistic activity determination, cells were incubated with sample to induce response. Media was aspirated from cells and replaced with 15 μL 2:1 HBSS/10 mM Hepes: CAMP XS+Ab reagent. […] For Gs-coupled agonistic assays, percentage activity is calculated using the following formula: % Activity=100%×(mean RLU of test sample−mean RLU of vehicle control)/(mean RLU of MAX control−mean RLU of vehicle control).

CLR/RAMP2 receptor [5] = biological target: T2, CLR/RAMP2 receptor; assay: CLR/RAMP2 arrestin receptor-activation assay (agonist mode); assay type: cell-based; conditions: for CLR/RAMP2 Max Activity % of positive control: agonist mode, positive control ADM; for EC50: CHO-K1 cells stably expressing CLR/RAMP2, arrestin assay;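 on all read-outs here: agonist dose-response in recombinant cell lines stably expressing each receptor complex, duplicate wells over 10 threefold dilutions from a top concentration of 1.0 µM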
Method: as §8, §9, §5, §6, §7

apelin receptor AGTRL1 = biological target: T3, apelin receptor AGTRL1 (Homo sapiens, UniProt P35414); assay: AGTRL1 cAMP assay; assay type: cell-based
T3 sequence (P35414 1-380): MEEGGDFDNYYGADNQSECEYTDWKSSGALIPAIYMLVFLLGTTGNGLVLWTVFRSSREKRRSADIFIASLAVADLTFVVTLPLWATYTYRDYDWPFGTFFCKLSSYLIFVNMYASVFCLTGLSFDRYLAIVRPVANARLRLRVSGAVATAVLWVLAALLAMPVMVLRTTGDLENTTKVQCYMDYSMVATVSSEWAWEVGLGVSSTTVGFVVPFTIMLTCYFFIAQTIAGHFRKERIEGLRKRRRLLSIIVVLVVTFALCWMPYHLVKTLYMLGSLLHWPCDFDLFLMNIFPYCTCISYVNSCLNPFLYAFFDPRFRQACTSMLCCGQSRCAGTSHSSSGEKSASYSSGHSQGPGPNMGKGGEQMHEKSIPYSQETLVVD
Method: as §4, §10

CLR/RAMP3 receptor [6] = biological target: T4, CLR/RAMP3 receptor (Homo sapiens, UniProt O60896+Q16602); assay: CLR/RAMP3 cAMP receptor-activation assay (agonist mode); assay type: cell-based; conditions: for EC50: CHO-K1 cells stably expressing CLR/RAMP3, cAMP assay; for CLR/RAMP3 Max Activity % of positive control: agonist mode
T4 sequence (Q16602 23-461): as the sequence (Q16602 23-461) above
T4 sequence (O60896 24-148): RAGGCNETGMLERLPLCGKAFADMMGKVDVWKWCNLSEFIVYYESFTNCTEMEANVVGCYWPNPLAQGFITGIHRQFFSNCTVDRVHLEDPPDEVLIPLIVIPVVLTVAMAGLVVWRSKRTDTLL
Method: as §8, §9, §10

[7] = biological target: neurotensin receptor 1 (NTSR1) (Homo sapiens, UniProt P30989); assay: NTSR1 calcium flux assay; assay type: cell-based
Sequence of neurotensin receptor 1 (NTSR1) (P30989 whole entry): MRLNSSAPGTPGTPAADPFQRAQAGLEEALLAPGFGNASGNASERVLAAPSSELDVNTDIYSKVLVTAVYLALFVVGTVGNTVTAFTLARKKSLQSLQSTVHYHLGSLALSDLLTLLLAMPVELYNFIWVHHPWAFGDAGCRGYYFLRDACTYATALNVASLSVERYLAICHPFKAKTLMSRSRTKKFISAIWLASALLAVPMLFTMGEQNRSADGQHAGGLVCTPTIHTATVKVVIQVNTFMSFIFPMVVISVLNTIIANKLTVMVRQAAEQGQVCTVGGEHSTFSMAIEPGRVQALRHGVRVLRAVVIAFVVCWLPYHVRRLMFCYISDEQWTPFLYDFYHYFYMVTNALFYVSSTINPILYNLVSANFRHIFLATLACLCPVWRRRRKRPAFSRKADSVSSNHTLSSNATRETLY
Method: The agonistic activities toward SSTR2, NTSR1, and AGTRL1 were assayed with an SSTR2 arrestin assay, an NTSR1 calcium flux assay, and an AGTRL1 CAMP assay (Discoverx Inc.), respectively. The antagonistic activities toward BDKRB1 and AGTR1 were assayed with a BDKRB1 calcium flux assay and an AGTR1 calcium flux assay (Discoverx Inc.), respectively.
For the analysis of calcium flux, cell lines were expanded from freezer stocks and seeded in a total volume of 20 μL into black-walled, clear-bottom, Poly-D-lysine coated 384-well microplates and incubated at 37 C for the appropriate time prior to testing. […] Compound agonist activity was measured on a FLIPR Tetra (MDS), and calcium mobilization was monitored for 2 minutes and 10 μL 4× sample in HBSS/20 mM Hepes was added to the cells 5 seconds into the assay.
The compound activity was analyzed using a CBIS data analysis suite (ChemInnovation, CA), and percentage activity is calculated using the following formula: % Activity=100%×(mean RFU of test sample−mean RFU of vehicle control)/(mean MAX RFU control ligand−mean RFU of vehicle control). For antagonist assays, percentage inhibition is calculated using the following formula: % Inhibition=100%×(1−(mean RFU of test sample−mean RFU of vehicle control)/(mean RFU of EC80 control−mean RFU of vehicle control)).

CLR/RAMP3 receptor [8] = biological target: T4, CLR/RAMP3 receptor; assay: CLR/RAMP3 cAMP assay, antagonist mode; assay type: cell-based
Method: as §1, §2, §3

[9] = biological target: T5, bradykinin receptor 1 (BDKRB1) (Homo sapiens, UniProt P46663); assay: BDKRB1 calcium flux assay, antagonist mode; assay type: cell-based; conditions: IC50 column pair
T5 sequence (P46663 1-353): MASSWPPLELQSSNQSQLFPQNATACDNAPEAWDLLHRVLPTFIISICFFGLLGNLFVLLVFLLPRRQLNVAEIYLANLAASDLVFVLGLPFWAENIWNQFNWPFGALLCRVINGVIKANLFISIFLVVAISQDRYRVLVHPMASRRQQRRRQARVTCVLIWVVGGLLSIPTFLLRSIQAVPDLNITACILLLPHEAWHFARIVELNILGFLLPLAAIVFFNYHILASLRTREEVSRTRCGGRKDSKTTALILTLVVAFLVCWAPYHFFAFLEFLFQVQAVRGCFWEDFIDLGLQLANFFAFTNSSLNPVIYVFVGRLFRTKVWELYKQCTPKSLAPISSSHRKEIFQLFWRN
Method: The antagonistic activities toward BDKRB1 and AGTR1 were assayed with a BDKRB1 calcium flux assay and an AGTR1 calcium flux assay (Discoverx Inc.), respectively.
For antagonist determination, cells were pre-incubated with sample followed by agonist challenge at the EC80 concentration. Intermediate dilution of sample stocks was performed to generate 3× sample in assay buffer. After dye loading, cells were removed from the incubator and 10 μL 3× sample was added. Cells were incubated for 30 minutes at room temperature in the dark to equilibrate plate temperature. […] Compound antagonistic activity was measured on a FLIPR Tetra (MDS), and calcium mobilization was monitored for 2 minutes and 10 μL EC80 agonist in HBSS/20 mM Hepes was added to the cells 5 seconds into the assay.
For antagonist assays, percentage inhibition is calculated using the following formula: % Inhibition=100%×(1−(mean RFU of test sample−mean RFU of vehicle control)/(mean RFU of EC80 control−mean RFU of vehicle control)).

T1 sequence (Q16602 23-461): as the sequence (Q16602 23-461) above
T1 sequence (O60894 27-148): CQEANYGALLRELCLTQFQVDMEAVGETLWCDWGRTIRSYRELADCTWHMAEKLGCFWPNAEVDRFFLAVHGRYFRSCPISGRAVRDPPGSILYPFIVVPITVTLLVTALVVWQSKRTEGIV

| Compound | CLR/RAMP1 Max Activity % of positive control (antagonist) (CLR/RAMP1 receptor [1]) | CLR/RAMP2 Max Activity % of positive control (antagonist) (CLR/RAMP2 receptor [2]) | CLR/RAMP1 Max Activity % of positive control (CLR/RAMP1 receptor [4]) | CLR/RAMP2 Max Activity % of positive control (CLR/RAMP2 receptor [5]) | other results |
| --- | --- | --- | --- | --- | --- |
| PEG20,000-K[PAL]VQKLAHQIYQFTDKDSAPVDPSSPHSY-NH2 [SEQ ID NO: 190] | 104 % of positive control | 51 % of positive control | – | – | – |
| CSCC[C@H](NC(=O)[C@H](C)NC(=O)[C@@H]1CCCN1C(=O)[C@H](CC(N)=O)NC(=O)[C@H](CO)NC(=O)[C@H](CC(N)=O)NC(=O)[C@H](C)NC(=O)[C@@H](N)CO)C(=O)N[C@@H](C)C(=O)N1CCC[C@H]1C(=O)N[C@@H](CCCNC(=N)N)C(=O)N[C@@H](CCC(=O)O)C(=O)N[C@@H](CCCNC(=N)N)C(=O)N[C@@H](CCCCN)C(=O)N[C@@H](C)C(=O)NCC(=O)N[C@H]1CSSC[C@@H](C(=O)O)NC(=O)[C@H](CO)NC(=O)[C@H]([C@@H](C)O)NC(=O)[C@H](Cc2ccccc2)NC(=O)[C@H]([C@@H](C)O)NC(=O)[C@H](CCCCN)NC(=O)[C@H](Cc2c[nH]c3ccccc23)NC(=O)[C@H](Cc2ccccc2)NC(=O)[C@H](Cc2ccccc2)NC(=O)[C@H](CC(N)=O)NC(=O)[C@H](CCCCN)NC1=O [Somatostatin 28] | – | – | – | – | SSTR2 Max Activity [3]: 102 % of positive controls |
| PEG5000-K[PAL]VQKLAHQIYQFTDKDSAPVDPSSPHSY-NH2 [SEQ ID NO: 192] | 101 % of positive control | 104 % of positive control | – | – | – |
| Pal-KVQKLNFVPTNVGSKAF-NH2 [SEQ ID NO: 142] | 100 % of positive control | 80 % of positive control | – | – | – |
| (Glp)RPRLSHKGP(Nle)PF-miniPEG-K(PAL)GCRFGTCTVQKLAHQIYQFTDKDVAPRSKISPQGY-NH2 [SEQ ID NO: 228] | – | – | 130 % of positive control | 74 % of positive control | AGTRL1 Max Activity (apelin receptor AGTRL1): 97 % of positive controls |
| Ace-YGGFLRRIRPKLK-miniPEG-K(Pal)VQKLSAPVDPSSPHSY-NH2 [SEQ ID NO: 146] | 102 % of positive control | 98 % of positive control | – | – | receptor selectivity of antagonists, in words (CLR/RAMP1 receptor [1]): CLR/RAMP1-selective |
| miniPEG-K(PAL)GCRFGTCTVQKLAHQIYQFTDKDSAPVDPSSPHSY-NH2 [SEQ ID NO: 48] | – | – | 78 % of positive control | 77 % of positive control | EC50 (CLR/RAMP1 receptor [4]; 1321N1 cells stably expressing CLR/RAMP1, cAMP assay): 0.3 nM; EC50 (CLR/RAMP2 receptor [5]): 0.2 nM; EC50 (CLR/RAMP3 receptor [6]): 0.07 nM; CLR/RAMP3 Max Activity % of positive control (CLR/RAMP3 receptor [6]): 141 % of positive control |
| Ace-KRPPGFSPFR-miniPEG-K(Pal)VQKLAHQIYQFTDKDVAPRSKISPQGY-NH2 [SEQ ID NO: 149] | 101 % of positive control | 99 % of positive control | – | – | receptor selectivity of antagonists, in words (CLR/RAMP1 receptor [1]): pan-specific |
| Ace-YNWNSFGLRF-miniPEG-K(PAL)VQKLAHQIYQFTDKDVAPRSKISPQGY-NH2 [SEQ ID NO: 148] | 100 % of positive control | 97 % of positive control | – | – | receptor selectivity of antagonists, in words (CLR/RAMP1 receptor [1]): pan-specific |
| Pyr(glu)-LYENKPRRPYIL-miniPEG-K(Pal)VQKLSAPVDPSSPHSY-NH2 [SEQ ID NO: 224] | 99 % of positive control | 100 % of positive control | – | – | NTSR1 Max Activity [7]: 57 % of positive controls |
| KKPYIL [[Lys 8,9] Neurotensin, reference compound] | – | – | – | – | NTSR1 Max Activity [7]: 100 % of positive controls |
| Pal-KVQNLSAPVDPSSPHSY-NH2 [SEQ ID NO: 141] | 43 % of positive control | 14 % of positive control | – | – | antagonistic activity toward CLR/RAMP1 and/or CLR/RAMP2, in words (CLR/RAMP1 receptor [1]): minimal antagonizing activities |
| Pal-KVQKLAHQSAPVDPSSPHSY-NH2 [SEQ ID NO: 124] | 95 % of positive control | 103 % of positive control | – | – | CLR/RAMP3 Max Activity % of positive control (antagonist) (CLR/RAMP3 receptor [8]): 102 % of positive control |
| miniPEG-K(PAL)GCRFGTCTVQKLAHQIYQFTDKDKDNSAPVDPSSPHSY-NH2 [SEQ ID NO: 28] | – | – | 54 % of positive control | 143 % of positive control | EC50 (CLR/RAMP2 receptor [5]): 0.5 nM; EC50 (CLR/RAMP3 receptor [6]): 0.06 nM; CLR/RAMP3 Max Activity % of positive control (CLR/RAMP3 receptor [6]): 117 % of positive control |
| miniPEG-K(PAL)GCRFGTCTVQKLAHQIYQFTDKDKDNVAPRSKISPQGY-NH2 [SEQ ID NO: 69] | – | – | 70 % of positive control | 147 % of positive control | CLR/RAMP3 Max Activity % of positive control (CLR/RAMP3 receptor [6]): 127 % of positive control |
| Ace-NFVPTNVGPFAF-NH2 [SEQ ID NO: 144] | 98 % of positive control | 0 % of positive control | – | – | antagonistic activity toward CLR/RAMP1 and/or CLR/RAMP2, in words (CLR/RAMP1 receptor [1]): minimal antagonizing activities |
| (G1p)RPRLSHKGPMPF [Apelin 13, reference compound] | – | – | – | – | AGTRL1 Max Activity (apelin receptor AGTRL1): 100 % of positive controls |
| Ace-KRPPGFS-DβNal-I-miniPEG-K(PAL)GCRFGTCTVQKLAHQIYQFTDKDVAPRSKISPQGY-NH2 [SEQ ID NO: 231] | – | – | 115 % of positive control | 46 % of positive control | BDKRB1 Max Activity [9]: 109 % of positive controls |
| miniPEG-K(PAL)VQKLSAPVDPSSPHSY-NH2 [SEQ ID NO: 140] | 100 % of positive control | 90 % of positive control | – | – | receptor selectivity of antagonists, in words (CLR/RAMP1 receptor [1]): CLR/RAMP1-selective |
| miniPEG-K(PAL)GCRFGTCTVQKLAHQIYQFTDKDVAPRSKISPQGY-NH2 [SEQ ID NO: 101] | – | – | 56 % of positive control | 74 % of positive control | receptor selectivity of agonists, in words (CLR/RAMP2 receptor [5]; CLR/RAMP2 versus CLR/RAMP1): CLR/RAMP2-selective; CLR/RAMP3 Max Activity % of positive control (CLR/RAMP3 receptor [6]): 129 % of positive control |
| olcegepant [BIBN4096, reference compound] | 105 % of positive control | 0 % of positive control | 105 % of positive control | 0 % of positive control | – |
